# Experimental data taken from patent US20230286923A1 (INIPHARM, INC., priority 2020, published 2023).
# Target: HSD17B13 enzyme (Homo sapiens (Human), UniProt Q7Z5P4)
# Experiment: Estrone detection assay (LC/MS, conversion of estradiol to estrone) for HSD17B13 activity
# Format: biochemical
# Settings: substrate 4 µM estradiol, 6 mM NAD+, 30 nM enzyme
# Experimental: The liquid chromatography/mass spectrometry (LC/MS) estrone detection assay monitors the conversion of estradiol to estrone by HSD17B13. This assay was undertaken in a 96wp format (Eppendorf deep well Plate 96/500) in an 80 µl reaction volume containing: 4 µM of Estradiol (E2; Cayman; #10006315), 6 mM NAD^+ (Sigma; #N0623) and 30 nM HSD17B13 enzyme (in-house; E. coli expressed His-tagged, purified, soluble protein) in a reaction containing 1 M potassium phosphate buffer pH 7.4, with 0.5% vehicle (DMSO). Reactions were incubated for 2 hours at 26.5° C., and estradiol (E2) conversion to estrone (E1) was quantitated by LC-MS/MS based analyte detection for both E2 and E1 using LCMS grade reagents.
# Reactions were terminated by the addition of two volumes of acetonitrile (MeCN; LCMS grade; CAS# 75/05/8) containing deuterated (D4)-E1 used as internal standard (Clear Synth; #CS-T-54273; 500 ng/mL final concentration). Samples were applied to pre-prepared Bond Elut-C18 extraction cartridges (3 mL; Agilent; #12102028), washed and eluted in MeCN. Eluates were dried under nitrogen and re-suspended in 60% methanol (LCMS grade methanol; CAS# 67/56/1) before submission for analysis. Aqueous linearity for E2 and E1 were included for quantification.
# Analysis of samples was undertaken on a XBridge BEH C18 column (Waters; #186003033) using 0.1% Diethyl Amine in MeCN (mobile phase A; DEA CAS# 109-89-7) and 0.1% Diethyl Amine in milli-Q water (mobile phase B) in a 3 min gradient allowing 25%B. Analytes were detected in negative mode using MRM analysis, with E2 having a RT of 1.85 min and E1 having a RT of 2 min. Activity of the enzyme, in the absence of NAD^+, was used to evaluate specificity of conversion. Enzyme activity in the presence of test samples was expressed as a percentage of the uninhibited enzyme activity, and plotted versus inhibitor concentration. Non-linear regression was performed using a four-parameter logistic model and GraphPad Prism software (GraphPad Software, La Jolla, CA). All assessments were undertaken in duplicate evaluations and pooled during extraction process and subsequently injected as duplicates for LC-MS/MS analysis.
# Sequence of HSD17B13 enzyme (Q7Z5P4 20-300): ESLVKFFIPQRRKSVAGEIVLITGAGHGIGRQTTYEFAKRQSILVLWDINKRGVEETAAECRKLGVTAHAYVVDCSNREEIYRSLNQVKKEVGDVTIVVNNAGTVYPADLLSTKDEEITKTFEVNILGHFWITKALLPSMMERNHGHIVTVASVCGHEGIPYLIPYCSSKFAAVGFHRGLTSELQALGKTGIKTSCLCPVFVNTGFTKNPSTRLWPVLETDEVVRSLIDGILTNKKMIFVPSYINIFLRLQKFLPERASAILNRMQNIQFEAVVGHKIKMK
row,Structure (SMILES),IC50 [nM]
1,"CC(C)(C)CCn1cnc2cccc(NC(=O)c3cnc(O)c(Cl)c3)c2c1=O [Example 12, 5-chloro-N-(3-(3,3-dimethylbutyl)-4-oxo-3,4-dihydroquinazolin-5-yl)-6-hydroxynicotinamide]",1000 to 10000
2,"CC(C)(C)CCn1cnc2cccc(NC(=O)c3ccc(-c4nnn[nH]4)c(Cl)c3)c2c1=O [Example 13, 3-chloro-N-(3-(3,3-dimethylbutyl)-4-oxo-3,4-dihydroquinazolin-5-yl)-4-(1H-tetrazol-5-yl)benzamide]",1000 to 10000
3,"O=C(Nc1cccc2ncn(Cc3ccc(F)cc3)c(=O)c12)c1cc(Cl)c(O)c(C(F)(F)F)c1 [Example 35, 3-chloro-N-(3-(4-fluorobenzyl)-4-oxo-3,4-dihydroquinazolin-5-yl)-4-hydroxy-5-(trifluoromethyl)benzamide]",100 to 1000
4,"O=C(Nc1cccc2ncn(Cc3nncs3)c(=O)c12)c1cc(Cl)c(O)c(C(F)(F)F)c1 [Example 36, N-(3-((1,3,4-thiadiazol-2-yl)methyl)-4-oxo-3,4-dihydroquinazolin-5-yl)-3-chloro-4-hydroxy-5-(trifluoromethyl)benzamide]",1000 to 10000
5,"O=C(Nc1cccc2ncn(Cc3ccccc3F)c(=O)c12)c1cc(Cl)c(O)c(C(F)(F)F)c1 [Example 41, 3-chloro-N-(3-(2-fluorobenzyl)-4-oxo-3,4-dihydroquinazolin-5-yl)-4-hydroxy-5-(trifluoromethyl)benzamide]",100 to 1000
6,O=C(Nc1cccc2ncn(Cc3cocn3)c(=O)c12)c1cc(Cl)c(O)c(C(F)(F)F)c1 [Example 42],1000 to 10000
7,"C[C@@H](c1cccc(F)c1)n1cnc2cccc(NC(=O)c3cc(Cl)c(O)c(C(F)(F)F)n3)c2c1=O [Example 43, (S)-4-chloro-N-(3-(1-(3-fluorophenyl)ethyl)-4-oxo-3,4-dihydroquinazolin-5-yl)-5-hydroxy-6-(trifluoromethyl)picolinamide]",100 to 1000
8,"N#Cc1cc(C(=O)Nc2cccc3ncn(Cc4ccc(F)cc4)c(=O)c23)cc(F)c1O [Example 44, 3-cyano-5-fluoro-N-(3-(4-fluorobenzyl)-4-oxo-3,4-dihydroquinazolin-5-yl)-4-hydroxybenzamide]",≤ 100
9,"O=C(Nc1cccc2ncn(Cc3ccc(C(F)(F)F)cc3)c(=O)c12)c1cc(Cl)c(O)c(C(F)(F)F)c1 [Example 46, 3-chloro-4-hydroxy-N-(4-oxo-3-(4-(trifluoromethyl)benzyl)-3,4-dihydroquinazolin-5-yl)-5-(trifluoromethyl)benzamide]",100 to 1000

# Continued, values first:
row,IC50 [nM],Structure (SMILES)
1,100 to 1000,"N#Cc1cc(C(=O)Nc2cccc3ncn(Cc4ccccc4F)c(=O)c23)cc(Cl)c1O [Example 37, 3-chloro-5-cyano-N-(3-(2-fluorobenzyl)-4-oxo-3,4-dihydroquinazolin-5-yl)-4-hydroxybenzamide]"
2,100 to 1000,"C[C@@H](c1cccc(F)c1)n1cnc2cccc(NC(=O)c3cc(Cl)c(O)c(C#N)c3)c2c1=O [Example 38, (S)-3-chloro-5-cyano-N-(3-(1-(3-fluorophenyl)ethyl)-4-oxo-3,4-dihydroquinazolin-5-yl)-4-hydroxybenzamide]"
3,100 to 1000,"O=C(Nc1cccc2ncn(Cc3ccccc3C(F)(F)F)c(=O)c12)c1cc(Cl)c(O)c(C(F)(F)F)c1 [Example 39, 3-chloro-4-hydroxy-N-(4-oxo-3-(2-(trifluoromethyl)benzyl)-3,4-dihydroquinazolin-5-yl)-5-(trifluoromethyl)benzamide]"
4,100 to 1000,"O=C(Nc1cccc2ncn(Cc3cccc(F)c3)c(=O)c12)c1cc(C(F)(F)F)c(O)c(C(F)(F)F)n1 [Example 40, N-(3-(3-fluorobenzyl)-4-oxo-3,4-dihydroquinazolin-5-yl)-5-hydroxy-4,6-bis(trifluoromethyl)picolinamide]"
5,100 to 1000,"O=C(Nc1cccc2ncn(Cc3ccccc3F)c(=O)c12)c1cc(Cl)c(O)c(C(F)(F)F)n1 [Example 45, 4-chloro-N-(3-(2-fluorobenzyl)-4-oxo-3,4-dihydroquinazolin-5-yl)-5-hydroxy-6-(trifluoromethyl)picolinamide]"
